Source: publication PMC12608647, “Synthesis and Activity Evaluation of Novel Benzoxazepinone Derivatives as Potential Inhibitors of Glycogen Phosphorylase” (Molecules, 2025)
“Also recorded” adds a separate entry of the source.

Key:
HL-7702 cells = experiment: Glycogenolysis inhibition assay in HL-7702 cells; type: cell-based, human; details: for IC50: Homo sapiens, L02, 1 h, HL-7702 cells, 0.3 nM glucagon, 60 min, mean ± SD of three determinations
Procedure: To evaluate the effects of the synthesized compounds on glycogen degradation, compounds 8a–8i were subjected to a glycogenolysis assay in HL-7702 cells.
The inhibitory effect on hepatic glycogenolysis was quantitatively assessed by colorimetry using a microplate reader (Bio-Rad Laboratories) and anthrone reagent (Sigma-Aldrich, St. Louis, MO, USA), as previously described. Primary human liver HL-7702 cells (National Collection of Authenticated Cell Cultures) were treated with test compounds or DMSO solvent (final concentration, 0.10%) and then co-incubated with 0.3 nM glucagon for 60 min. After termination of the reaction by centrifugation, the cells were digested with 30% potassium hydroxide, and the glycogen content was determined. When culturing cells to concentration, a 6-well plate is used for cell culture, with a cell seeding density of 10^6 cells per well. The condition is set at a constant temperature of 37 degrees Celsius. The repetition count is three times. The activity assessment criteria were based on the positive drug psn-357 and the parent nuclear compound 5d. IC50 values were estimated by fitting the inhibition data to a logistic regression equation to generate dose–response curves. Analysis was conducted using SPSS Statistics 17.0. In vitro data are presented as mean ± SD, and in vivo data as mean ± SEM. Differences between two groups were assessed using Student’s t-test, and comparisons among three or more groups using ANOVA. A p-value < 0.05 was considered significant.

[1] = biological target: T1, rabbit muscle glycogen phosphorylase a (RMGPa) (Oryctolagus cuniculus, UniProt P00489); experiment: RMGPa inhibition assay (phosphate release from glucose-1-phosphate); type: biochemical; details: for IC50: mean ± SD of three determinations
T1 sequence (P00489 2-843 limits assumed): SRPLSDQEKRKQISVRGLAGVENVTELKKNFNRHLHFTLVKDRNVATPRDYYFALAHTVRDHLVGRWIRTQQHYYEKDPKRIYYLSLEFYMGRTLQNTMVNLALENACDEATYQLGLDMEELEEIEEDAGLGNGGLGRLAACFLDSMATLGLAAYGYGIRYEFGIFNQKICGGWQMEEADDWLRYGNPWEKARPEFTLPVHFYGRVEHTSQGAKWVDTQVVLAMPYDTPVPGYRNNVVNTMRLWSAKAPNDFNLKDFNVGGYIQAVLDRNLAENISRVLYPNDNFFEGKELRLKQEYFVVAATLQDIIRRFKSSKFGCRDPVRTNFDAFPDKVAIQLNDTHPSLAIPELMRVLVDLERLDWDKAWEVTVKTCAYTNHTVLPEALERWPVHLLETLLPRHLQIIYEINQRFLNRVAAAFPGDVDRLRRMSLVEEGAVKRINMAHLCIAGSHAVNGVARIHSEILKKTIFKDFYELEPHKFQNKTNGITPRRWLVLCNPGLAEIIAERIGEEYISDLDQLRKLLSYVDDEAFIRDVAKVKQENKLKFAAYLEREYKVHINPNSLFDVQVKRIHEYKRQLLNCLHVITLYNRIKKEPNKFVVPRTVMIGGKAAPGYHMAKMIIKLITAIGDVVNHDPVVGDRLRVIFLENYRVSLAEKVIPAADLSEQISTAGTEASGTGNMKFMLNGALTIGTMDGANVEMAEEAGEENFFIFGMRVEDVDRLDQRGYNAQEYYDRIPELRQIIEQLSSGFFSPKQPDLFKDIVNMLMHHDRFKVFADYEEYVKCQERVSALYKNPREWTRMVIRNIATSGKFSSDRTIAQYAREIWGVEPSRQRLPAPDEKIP
Procedure: The synthesized compounds were evaluated for their inhibitory activity against rabbit muscle glycogen phosphorylase a (RMGPa) according to a previously reported protocol. PSN-357, a compound in phase II clinical trials, was used as a positive control. We also used the parent structure 5d as a positive control (Figure 2).
The inhibitory activity of the test compounds against RMGPa was evaluated using a microplate reader (Bio-Rad Laboratories, Berkeley, CA, USA) according to a previously described method. Briefly, RMGPa activity was determined by measuring the release of phosphate from glucose-1-phosphate, which reflects the direction of glycogen synthesis. Each test compound was dissolved in DMSO and diluted to different concentrations for IC50 determination. The enzyme was added to 100 μL reaction mixtures in 96-well Costar microplates (Corning Inc., Corning, NY, USA) containing 50 mM HEPES (pH 7.2), 100 mM potassium chloride (KCl), 2.5 mM magnesium chloride (MgCl2), 0.5 mM glucose-1-phosphate, 1 mg/mL glycogen, and the test compounds. After incubation at 22 °C for 25 min, 150 μL of a solution containing 10 mg/mL ammonium molybdate and 0.38 mg/mL malachite green was added. The absorbance of phosphate was measured at 620 nm. IC50 values were estimated by fitting the inhibition data to a dose–response curve using a logistic regression equation.

SMILES	IC50 (HL-7702 cells) [µM]	IC50 [1] [µM]	RMGPa inhibitory activity relative to PSN-357 ([1]; versus PSN-357)	potency relative to parent structure 5d in HL-7702 cells (HL-7702 cells; versus 5d)	potency relative to PSN-357 in HL-7702 cells (inhibition of glycogen degradation) (HL-7702 cells; versus PSN-357)
CCCCCOC1COc2ccc(NC(=O)c3cc4cc(Cl)ccc4[nH]3)cc2C(=O)N1 (centres unmarked) [Compound 8e, 5-chloro-N-(5-oxo-3-(pentyloxy)-2,3,4,5-tetrahydrobenzo[f][1,4]oxazepin-7-yl)-1H-indole-2-carboxamide]	15.4 ± 0.89	0.88 ± 0.03			
COC1COc2ccc(NC(=O)c3cc4cc(Cl)ccc4[nH]3)cc2C(=O)N1 (centres unmarked) [Compound 8a, 5-chloro-N-(3-methoxy-5-oxo-2,3,4,5-tetrahydrobenzo[f][1,4]oxazepin-7-yl)-1H-indole-2-carboxamide]	8.51 ± 3.99	0.21 ± 0.05	twice as strong		
COCCOC1COc2ccc(NC(=O)c3cc4cc(Cl)ccc4[nH]3)cc2C(=O)N1 (centres unmarked) [Compound 8i, 5-chloro-N-[3-(2-methoxyethoxy)-5-oxo-2,3,4,5-tetrahydrobenzo[f][1,4]oxazepin-7-yl]-1H-indole-2-carboxamide]	> 15.4	5.31 ± 0.62			
CCCCCCOC1COc2ccc(NC(=O)c3cc4cc(Cl)ccc4[nH]3)cc2C(=O)N1 (centres unmarked) [Compound 8f, 5-chloro-N-(3-(hexyloxy)-5-oxo-2,3,4,5-tetrahydrobenzo[f][1,4]oxazepin-7-yl)-1H-indole-2-carboxamide]	7.67 ± 1.98	0.29 ± 0.1			
CCOC1COc2ccc(NC(=O)c3cc4cc(Cl)ccc4[nH]3)cc2C(=O)N1 (centres unmarked) [Compound 8b, 5-chloro-N-(3-ethoxy-5-oxo-2,3,4,5-tetrahydrobenzo[f][1,4]oxazepin-7-yl)-1H-indole-2-carboxamide]	6.77 ± 0.93	1.61 ± 0.41			
O=C(N[C@@H](Cc1ccc(F)cc1)C(=O)N1CCC(O)CC1)c1cc2cc(Cl)ncc2[nH]1 [PSN-357, reference compound]	4.94 ± 0.28				
O=C(Nc1ccc2c(c1)C(=O)NC(OCc1ccccc1)CO2)c1cc2cc(Cl)ccc2[nH]1 (centres unmarked) [Compound 8g, N-(3-(benzyloxy)-5-oxo-2,3,4,5-tetrahydrobenzo[f][1,4]oxazepin-7-yl)-5-chloro-1H-indole-2-carboxamide]	1.51 ± 0.21	0.62 ± 0.16		twice	threefold increase; also recorded: three times greater
CCCCOC1COc2ccc(NC(=O)c3cc4cc(Cl)ccc4[nH]3)cc2C(=O)N1 (centres unmarked) [Compound 8d, N-(3-butoxy-5-oxo-2,3,4,5-tetrahydrobenzo[f][1,4]oxazepin-7-yl)-5-chloro-1H-indole-2-carboxamide]	9.81 ± 1.39	0.71 ± 0.25			
O=C(Nc1ccc2c(c1)C(=O)NCCO2)c1cc2cc(Cl)ccc2[nH]1 [Compound 5d, reference compound]	3.75 ± 2.67	0.25 ± 0.05			
CCCOC1COc2ccc(NC(=O)c3cc4cc(Cl)ccc4[nH]3)cc2C(=O)N1 (centres unmarked) [Compound 8c, 5-chloro-N-(5-oxo-3-propoxy-2,3,4,5-tetrahydrobenzo[f][1,4]oxazepin-7-yl)-1H-indole-2-carboxamide]	5.33 ± 1.39				
CC(C)CCOC1COc2ccc(NC(=O)c3cc4cc(Cl)ccc4[nH]3)cc2C(=O)N1 (centres unmarked) [Compound 8h, 5-chloro-N-(3-(isopentyloxy)-5-oxo-2,3,4,5-tetrahydrobenzo[f][1,4]oxazepin-7-yl)-1H-indole-2-carboxamide]	6.99 ± 0.99	0.7 ± 0.55			
